In US12570666B2, “Furoindazole derivatives” (Bayer Aktiengesellschaft, priority 2019, dated 2026) one finds IC50 data, which are given here for 24 compounds.

The structures appear in SMILES notation.

For this test, the target named is T1, human GPR84 receptor (Homo sapiens, UniProt Q9NQS5).
T1 construct: frozen aliquots prepared by acCELLerate; host or cells: CHO-K1
T1 sequence (Q9NQS5 whole entry): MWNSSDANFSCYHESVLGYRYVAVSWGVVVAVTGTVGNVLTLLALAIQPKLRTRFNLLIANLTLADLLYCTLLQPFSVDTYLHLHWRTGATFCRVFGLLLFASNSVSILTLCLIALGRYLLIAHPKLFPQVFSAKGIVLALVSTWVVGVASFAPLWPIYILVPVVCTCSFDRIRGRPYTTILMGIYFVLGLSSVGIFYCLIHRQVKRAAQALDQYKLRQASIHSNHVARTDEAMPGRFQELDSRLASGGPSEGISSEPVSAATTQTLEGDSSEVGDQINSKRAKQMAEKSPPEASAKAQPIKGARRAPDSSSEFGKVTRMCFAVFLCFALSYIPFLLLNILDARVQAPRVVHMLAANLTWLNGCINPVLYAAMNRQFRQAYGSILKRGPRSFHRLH
The experiment in a line: cAMP HTRF assay for identification of cellular GPR84 antagonists. The format is cell-based. The note with it: CHO-K1 cells stably expressing human GPR84; Forskolin + agonist 6-OAU (EC80); average or median values. An excerpt:
cAMP HTRF® Assay for Identification of Cellular GPR84 Antagonists
By using a Homogenous Time-Resolved Fluorescence (HTRF®) based assay (#62AM5PEJ, Cisbio, Condolet, France) the inhibition of the Gi-coupled GPR84 receptor can be detected. CHO-K1 cells stably expressing human GPR84 receptor (purchased from DiscoveRx, now Eurofins) were used and treated with Forskolin (F6886, Sigma, Germany) to stimulate membrane adenylyl cyclases and thereby unspecific cAMP formation. Activation of the Gi-coupled GPR84 by a natural or small molecule agonist (e.g. 6-n-octyl aminouracile, inhouse) results in inhibition of cellular cAMP formation which can be released again by antagonists to this receptor. Detection and quantification of cellular cAMP levels in this HTRF assay is achieved by interaction between a fluorescent cAMP tracer (cAMP-d2) and an Eu-cryptate labelled anti-cAMP antibody. Following excitation at 337 nm this pairing allows for the generation of a fluorescence resonance energy transfer (FRET) between the partners and results in FRET induced emissions at 665 nm and 620 nm, the latter representing background signal by Eu-cryptate labelled anti-cAMP antibody. Maximal signal is obtained in the absence of any cellular cAMP (no competition for the binding of the tracer to the antibody). Given the combination of the Gi coupling properties of GPR84 and the competitive nature of the detection system agonist treatment should result in an increase in the HTRF signal due to lowered cAMP levels. Any signal decrease in the presence of Forskolin, agonist and compound is indicative of antagonist mediated abrogation of GPR84 signalling.
For the assay, frozen aliquots of CHO-K1 cells expressing hGPR84 (prepared by acCELLerate, Hamburg, Germany) were thawed and a cell suspension (1.67E+06 cells/mL) in assay media (Ham's F12 Nutrient Mix, Thermo Fisher Scientific, Waltham, USA; 5% fetal calf serum, Biomol, Hamburg, Germany) containing cAMP-d2 (dilution 1:20, supplied with the kit #62AM5PEJ, Cisbio, Condolet, France) was prepared. After recovery of cells for 20 minutes at 37° C., 3 μL/well cell suspension including cAMP-d2 were added to a pre-dispensed assay plate (Greiner Bio-One, Kremsmuenster, Austria) containing 50 nl/well test compound in 100% DMSO or 100% DMSO as control. This was followed by a 30 minutes incubation step at room temperature. […] The reaction was stopped by addition of 3 μL/well lysis buffer containing cAMP Eu-Cryptate antibody (dilution 1:20) (both supplied with the kit #62AM5PEJ, Cisbio, Condolet, France). To enable complete lysis, plates were incubated for 60 minutes at room temperature before measurement in an HTRF reader, e.g. a PHERAstar (BMG Labtech, Ortenberg, Germany).
From the fluorescence emissions at 665 nm (FRET) and at 620 nm (background signal of Eu-cryptate) the ratio (emission at 665 nm divided by emission at 620 nm×10000) was calculated and the data were normalized (reaction without test compound, only 100% DMSO=0% inhibition; all other assay components except agonist=100% inhibition). For dose response testing on the same microtiter plate, compounds were tested at 11 different concentrations in the range of 20 μM to 0.07 nM (20 μM, 5.7 μM, 1.6 μM, 0.47 μM, 0.13 μM, 38 nM, 11 nM, 3.1 nM, 0.89 nM, 0.25 and 0.07 nM; dilution series prepared before the assay at the level of the 100-fold conc. stock solutions by serial 1:3.5 dilutions in 100% DMSO) in duplicate values for each concentration. IC50 values were calculated by 4-parameter fitting using a commercial software package (Genedata Screener, Basel, Switzerland).
Examples were tested in selected biological assays one or more times. […]
For orientation: Time-resolved FRET reads energy transfer from a long-lived donor to a nearby acceptor.
On to `Cc1c(C(=O)NCC2CCC(=O)O2)oc2c1-c1nn(Cc3ccccn3)cc1CC2` (single isomer, unassigned) [Example 39-1], for which the half-maximal inhibitory concentration (IC50) (commonly the concentration that inhibits the measured activity by half) is 670 nM.

Regarding `Cc1c(C(=O)NCC2CCC(=O)O2)oc2c1-c1nn(Cc3ccccn3)cc1CC2` (single isomer, unassigned) [Example 39-2], the IC50 turned out to be 7050 nM. Regarding `Cc1c(C(=O)NCc2cc(C3CC3)on2)oc2c1-c1nn(CC3COc4ncccc4O3)cc1CC2` (single isomer, unassigned) [Example 50-1], the IC50 came to 110 nM. The same measure for `Cc1c(C(=O)NCc2cc(C3CC3)on2)oc2c1-c1nn(CC3COc4ncccc4O3)cc1CC2` (single isomer, unassigned) [Example 50-2]: 17 nM; for `Cc1c(C(=O)NCC2CCCO2)oc2c1-c1nn(CC3COc4ncccc4O3)cc1CC2` (single isomer, unassigned) [Example 52-1]: 95 nM. The value for `Cc1c(C(=O)NCC2CCCO2)oc2c1-c1nn(CC3COc4ncccc4O3)cc1CC2` (single isomer, unassigned) [Example 52-2] was 16 nM. Turning to `Cc1c(C(=O)NCc2ccon2)oc2c1-c1nn(CC3COc4ncccc4O3)cc1CC2` (single isomer, unassigned) [Example 55-1], the IC50 was 340 nM. The value for `Cc1c(C(=O)NCc2ccon2)oc2c1-c1nn(CC3COc4ncccc4O3)cc1CC2` (single isomer, unassigned) [Example 55-2] was 43 nM; that for `Cc1cccc(Cn2cc3c(n2)-c2c(oc(C(=O)NCC4CCCO4)c2C)CC3)n1` (single isomer, unassigned) [Example 66-1] was 63 nM. For the compound `Cc1cccc(Cn2cc3c(n2)-c2c(oc(C(=O)NCC4CCCO4)c2C)CC3)n1` (single isomer, unassigned) [Example 66-2], the half-inhibitory concentration (IC50) stood at 660 nM. The same measure for `Cc1c(C(=O)NC[C@H]2CCC3(COC3)O2)oc2c1-c1nn(C[C@H]3COCCO3)cc1C1(CC1)C2` (single isomer, unassigned) [Example 201-1]: 683 nM; for `Cc1c(C(=O)NC[C@H]2CCC3(COC3)O2)oc2c1-c1nn(C[C@H]3COCCO3)cc1C1(CC1)C2` (single isomer, unassigned) [Example 201-2]: 112 nM; for `O=C(NC[C@H]1CC(F)(F)CO1)c1oc2c(c1C(F)(F)F)-c1nn(C[C@H]3COCCO3)cc1CC2` (single isomer, unassigned) [Example 222-1, N-{[(2R or 2S)-4,4-difluorooxolan-2-yl]methyl}-2-{[(2S)-1,4-dioxan-2-yl]methyl}-8-(trifluoromethyl)-4,5-dihydro-2H-furo[2,3-g]indazole-7-carboxamide]: 12 nM. The same measure for `O=C(NC[C@H]1CC(F)(F)CO1)c1oc2c(c1C(F)(F)F)-c1nn(C[C@H]3COCCO3)cc1CC2` (single isomer, unassigned) [Example 222-2, N-{[(2S or 2R)-4,4-difluorooxolan-2-yl]methyl}-2-{[(2S)-1,4-dioxan-2-yl]methyl}-8-(trifluoromethyl)-4,5-dihydro-2H-furo[2,3-g]indazole-7-carboxamide]: 54 nM; for `CC1(C)CC[C@H](CNC(=O)c2oc3c(c2C(F)(F)F)-c2nn(C[C@H]4COCCO4)cc2CC3)O1` (single isomer, unassigned) [Example 223-1, N-{[(2R or 2S)-5,5-dimethyloxolan-2-yl]methyl}-2-{[(2S)-1,4-dioxan-2-yl]methyl}-8-(trifluoromethyl)-4,5-dihydro-2H-furo[2,3-g]indazole-7-carboxamide]: 12 nM. As for `CC1(C)CC[C@H](CNC(=O)c2oc3c(c2C(F)(F)F)-c2nn(C[C@H]4COCCO4)cc2CC3)O1` (single isomer, unassigned) [Example 223-2, N-{[(2S or 2R)-5,5-dimethyloxolan-2-yl]methyl}-2-{[(2S)-1,4-dioxan-2-yl]methyl}-8-(trifluoromethyl)-4,5-dihydro-2H-furo[2,3-g]indazole-7-carboxamide], the 50% inhibitory concentration (IC50) was 51 nM. The same measure for `CC1CCC(CNC(=O)c2oc3c(c2C(F)(F)F)-c2nn(CC4COCCO4)cc2CC3)O1` (single isomer, unassigned) [Example 224-1, 2-{[(2S)-1,4-dioxan-2-yl]methyl}-N-{[(2R or 2S,5R or 5S)-5-methyloxolan-2-yl]methyl}-8-(trifluoromethyl)-4,5-dihydro-2H-furo[2,3-g]indazole-7-carboxamide]: 16 nM; for `CC1CCC(CNC(=O)c2oc3c(c2C(F)(F)F)-c2nn(CC4COCCO4)cc2CC3)O1` (single isomer, unassigned) [Example 224-2, 2-{[(2S)-1,4-dioxan-2-yl]methyl}-N-{[(2S or 2R,5S or 5R)-5-methyloxolan-2-yl]methyl}-8-(trifluoromethyl)-4,5-dihydro-2H-furo[2,3-g]indazole-7-carboxamide]: 154 nM. For the compound `CC1Cc2oc(C(=O)NC[C@@H]3COCCO3)c(C(F)(F)F)c2-c2nn(C[C@H]3COCCO3)cc21` (single isomer, unassigned) [Example 254-1, (4R or 4S)-N-{[(2R)-1,4-dioxan-2-yl]methyl}-2-{[(2S)-1,4-dioxan-2-yl]methyl}-4-methyl-8-(trifluoromethyl)-4,5-dihydro-2H-furo[2,3-g]indazole-7-carboxamide], the IC50 amounted to 10 nM.

With `CC1Cc2oc(C(=O)NC[C@@H]3COCCO3)c(C(F)(F)F)c2-c2nn(C[C@H]3COCCO3)cc21` (single isomer, unassigned) [Example 254-2, (4R or 4S)-N-{[(2R)-1,4-dioxan-2-yl]methyl}-2-{[(2S)-1,4-dioxan-2-yl]methyl}-4-methyl-8-(trifluoromethyl)-4,5-dihydro-2H-furo[2,3-g]indazole-7-carboxamide], the IC50 amounted to 46 nM. The same measure for `C[C@@H]1Cc2oc(C(=O)NC[C@@H]3CCCO3)c(C(F)(F)F)c2-c2nn(C[C@H]3COCCO3)cc21` (single isomer, unassigned) [Example 255-1, (4R or 4S)-2-{[(2S)-1,4-dioxan-2-yl]methyl}-4-methyl-N-{[(2S)-oxolan-2-yl]methyl}-8-(trifluoromethyl)-4,5-dihydro-2H-furo[2,3-g]indazole-7-carboxamide]: 3 nM; for `C[C@@H]1Cc2oc(C(=O)NC[C@@H]3CCCO3)c(C(F)(F)F)c2-c2nn(C[C@H]3COCCO3)cc21` (single isomer, unassigned) [Example 255-2, (4R or 4S)-2-{[(2S)-1,4-dioxan-2-yl]methyl}-4-methyl-N-{[(2S)-oxolan-2-yl]methyl}-8-(trifluoromethyl)-4,5-dihydro-2H-furo[2,3-g]indazole-7-carboxamide]: 16 nM; for `C[C@@H]1Cc2oc(C(=O)NCc3ncco3)c(C(F)(F)F)c2-c2nn(C[C@H]3COCCO3)cc21` (single isomer, unassigned) [Example 256, (4R or 4S)-2-{[(2S)-1,4-dioxan-2-yl]methyl}-4-methyl-N-[(1,3-oxazol-2-yl)methyl]-8-(trifluoromethyl)-4,5-dihydro-2H-furo[2,3-g]indazole-7-carboxamide]: 14 nM.

Regarding `C[C@@H]1Cc2oc(C(=O)NCc3ccn(C)n3)c(C(F)(F)F)c2-c2nn(C[C@H]3COCCO3)cc21` (single isomer, unassigned) [Example 257, (4R or 4S)-2-{[(2S)-1,4-dioxan-2-yl]methyl}-4-methyl-N-[(1-methyl-1H-pyrazol-3-yl)methyl]-8-(trifluoromethyl)-4,5-dihydro-2H-furo[2,3-g]indazole-7-carboxamide], the half-inhibitory concentration (IC50) came out at 25 nM.
